Assay results reported in patent US20090143279A1 (priority 2007, published 2009).
Read-outs that look alike come from different tables or passages of the source.

What was measured:
[1] = system: mitochondrial membrane potential; format: cell-based, mouse; conditions: for ΔΨm (composite Z-score): normalized score vs mock-treated (DMSO) wells
reactive oxygen species = format: cell-based, mouse; conditions: for ROS (composite Z-score): normalized score vs mock-treated (DMSO) wells
OXPHOS gene expression = format: cell-based, mouse; conditions: for GE-HTS (composite Z-score): normalized score vs mock-treated (DMSO) wells
nuOXPHOS transcripts = format: cell-based, mouse; conditions: for nucOX (composite Z-score): normalized score vs mock-treated (DMSO) wells
mtOXPHOS transcripts = format: cell-based, mouse; conditions: for mitoOX (composite Z-score): normalized score vs mock-treated (DMSO) wells
cytochrome c = format: cell-based, mouse; conditions: for cyt c (composite Z-score): normalized score vs mock-treated (DMSO) wells
C2C12 myotubes = conditions: for Viability (composite Z-score): normalized score vs mock-treated (DMSO) wells
[2] = system: cellular dehydrogenase activity; conditions: for MTT (composite Z-score): normalized score vs mock-treated (DMSO) wells
[3] = composite Z-score vs DMSO, Conc 20 μM
[4] = composite Z-score vs mock-treated (DMSO) wells, Conc 20 μM
[5] = normalized composite Z-score vs mock-treated (DMSO) wells, Conc 20 μM
[6] = Table 7, C2C12 myotubes, 48 h, composite Z-score
[7] = 20 μM, composite Z-score vs DMSO
[8] = composite Z-score vs mock-treated (DMSO) wells, concentration of each compound in μM

Chain of cytochrome c (P62897 whole entry): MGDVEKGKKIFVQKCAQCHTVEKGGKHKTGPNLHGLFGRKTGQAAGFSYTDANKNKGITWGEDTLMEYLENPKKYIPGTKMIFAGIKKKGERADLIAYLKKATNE

OC[C@@H](O)[C@@H](OC1O[C@H](CO)[C@@H](O)[C@H](O)[C@H]1O)[C@H](O)[C@@H](O)CO (some centres unmarked) [glucitol-4-gucopyanoside]
ΔΨm (composite Z-score) ([1]; Conc 20 μM): −0.454 | ROS (composite Z-score) (reactive oxygen species; Conc 20 μM): 0.351 | GE-HTS (composite Z-score) (OXPHOS gene expression; Conc 20 μM): −1.143 | nucOX (composite Z-score) (nuOXPHOS transcripts; Conc 20 μM): −1.087 | mitoOX (composite Z-score) (mtOXPHOS transcripts; Conc 20 μM): −1.006 | cyt c (composite Z-score) (cytochrome c; Conc 20 μM): 0.305 | Viability (composite Z-score) (C2C12 myotubes; Conc 20 μM): −0.508 | MTT (composite Z-score) ([2]; Conc 20 μM): −0.795

COc1cc(O)c2c(=O)c(-c3ccc(O)cc3)coc2c1OC [isotectorigenin, 7-methyl ether]
ΔΨm (composite Z-score) ([1]; Conc 20 μM): 0.574 | ROS (composite Z-score) (reactive oxygen species; Conc 20 μM): 0.644 | GE-HTS (composite Z-score) (OXPHOS gene expression; Conc 20 μM): −0.592 | nucOX (composite Z-score) (nuOXPHOS transcripts; Conc 20 μM): −0.674 | mitoOX (composite Z-score) (mtOXPHOS transcripts; Conc 20 μM): −0.360 | cyt c (composite Z-score) (cytochrome c; Conc 20 μM): −0.477 | Viability (composite Z-score) (C2C12 myotubes; Conc 20 μM): 0.633 | MTT (composite Z-score) ([2]; Conc 20 μM): −1.606

N=C(N)N.N=C(N)N.O=C(O)O [guanidine carbonate]
ΔΨm [1, 3]: −0.252 | ROS (reactive oxygen species; [3]): 0.401 | GE-HTS (OXPHOS gene expression; [3]): −1.142 | nucOX (nuOXPHOS transcripts; [3]): −1.112 | mitoOX (mtOXPHOS transcripts; [3]): −0.993 | cyt c (cytochrome c; [3]): −1.206 | Viability (C2C12 myotubes; [3]): −0.835 | MTT [2, 3]: −0.683

CC(C)=CCCC1(C)C=Cc2c(O)c3c(c(CC=C(C)C)c2O1)OC12C(CC4CC1C(C)(C)OC2(C/C=C(/C)C(=O)O)C4O)C3=O (centres unmarked) [tetrahydrogambogic acid]
ΔΨm [1, 4]: −1.438 | ROS (reactive oxygen species; [4]): 0.460 | GE-HTS (OXPHOS gene expression; [4]): −0.478 | nucOX (nuOXPHOS transcripts; [4]): −0.409 | mitoOX (mtOXPHOS transcripts; [4]): −0.490 | cyt c (cytochrome c; [4]): −0.932 | Viability (C2C12 myotubes; [4]): 1.434 | MTT [2, 4]: −1.090

Cc1c(O)c(O)cc2c1CC=C1[C@@]2(C)CC[C@@]2(C)[C@@H]3C[C@](C)(C(=O)O)CC[C@]3(C)CC[C@]12C [Dihydrocelastrol, reference compound]
ΔΨm [1, 5]: −3.514 | ROS (reactive oxygen species; [5]): −3.065 | GE-HTS (OXPHOS gene expression; [5]): −0.295 | nucOXPHOS Z (nuOXPHOS transcripts; [6]): 2.18 | nucOX (nuOXPHOS transcripts; [5]): 2.183 | mito-OXPHOS Z (mtOXPHOS transcripts; [6]): −5.22 | mitoOX (mtOXPHOS transcripts; [5]): −5.217 | cyt c (cytochrome c; [5]): −4.583 | Viability (C2C12 myotubes; [5]): −4.120 | MTT [2, 5]: −5.524

CC1(C)[C@H]2CC[C@@]1(C)C(=O)C2 [1r-camphor]
ΔΨm [1, 7]: −0.794 | ROS (reactive oxygen species; [7]): 0.042 | GE-HTS (OXPHOS gene expression; [7]): 0.073 | nucOX (nuOXPHOS transcripts; [7]): 0.107 | mitoOX (mtOXPHOS transcripts; [7]): 0.023 | cyt c (cytochrome c; [7]): 0.372 | Viability (C2C12 myotubes; [7]): −0.744 | MTT [2, 7]: −0.402

C=C1C2CC[C@@]3(C)[C@H](c4ccoc4)OC(=O)C[C@]13O[C@H]1CC(=O)C(C)(C)[C@H](C(O)C(=O)OC)[C@@]21C (some centres unmarked) [6-hydroxyangolensic acid methyl ester]
ΔΨm [1, 4]: 0.463 | ROS (reactive oxygen species; [4]): −0.249 | GE-HTS (OXPHOS gene expression; [4]): −1.426 | nucOX (nuOXPHOS transcripts; [4]): −1.425 | mitoOX (mtOXPHOS transcripts; [4]): −1.206 | cyt c (cytochrome c; [4]): 0.817 | Viability (C2C12 myotubes; [4]): 1.224 | MTT [2, 4]: −0.490

COC(=O)C1(C)CCCC2(C)c3ccc(C(C)C)cc3C(=O)CC12 (centres unmarked) [7-oxocallitrisic acid, methyl ester]
ΔΨm [1, 3]: 2.079 | ROS (reactive oxygen species; [3]): 0.162 | GE-HTS (OXPHOS gene expression; [3]): −0.876 | nucOX (nuOXPHOS transcripts; [3]): −0.457 | mitoOX (mtOXPHOS transcripts; [3]): −1.555 | cyt c (cytochrome c; [3]): −0.923 | Viability (C2C12 myotubes; [3]): 1.266 | MTT [2, 3]: 0.111

N=C(N)N/N=C/c1c(Cl)cccc1Cl [guanabenz]
ΔΨm [1, 3]: −1.073 | ROS (reactive oxygen species; [3]): 1.527 | GE-HTS (OXPHOS gene expression; [3]): −0.428 | nucOX (nuOXPHOS transcripts; [3]): −0.286 | mitoOX (mtOXPHOS transcripts; [3]): −0.563 | cyt c (cytochrome c; [3]): 0.420 | Viability (C2C12 myotubes; [3]): −0.404 | MTT [2, 3]: −0.886

C[C@@H]1O[C@@H](O[C@H]2[C@H](O[C@H]3CC[C@@]4(C)[C@@H](CC[C@]5(C)[C@@H]4CC=C4[C@@H]6CC(C)(C)CC[C@]6(C(=O)O)CC[C@]45C)[C@]3(C)CO)OC[C@H](O)[C@@H]2O)[C@H](O)[C@H](O)[C@H]1O [sapindoside A]
ΔΨm [1, 3]: −3.760 | ROS (reactive oxygen species; [3]): −2.825 | GE-HTS (OXPHOS gene expression; [3]): −1.176 | nucOX (nuOXPHOS transcripts; [3]): −1.786 | mitoOX (mtOXPHOS transcripts; [3]): 0.322 | cyt c (cytochrome c; [3]): −4.058 | Viability (C2C12 myotubes; [3]): −3.886 | MTT [2, 3]: −4.558

avocatin B
ΔΨm [1, 8]: 0.024 | ROS (reactive oxygen species; [8]): 1.229 | GE-HTS (OXPHOS gene expression; [8]): −0.935 | nucOX (nuOXPHOS transcripts; [8]): −0.863 | mitoOX (mtOXPHOS transcripts; [8]): −0.852 | cyt c (cytochrome c; [8]): 0.710 | Viability (C2C12 myotubes; [8]): −0.869 | MTT [2, 8]: −1.119

C[C@H](N)CO [I-alaninol]
ΔΨm [1, 3]: −0.428 | ROS (reactive oxygen species; [3]): 0.242 | GE-HTS (OXPHOS gene expression; [3]): −0.652 | nucOX (nuOXPHOS transcripts; [3]): −0.555 | mitoOX (mtOXPHOS transcripts; [3]): −0.738 | cyt c (cytochrome c; [3]): 0.301 | Viability (C2C12 myotubes; [3]): −0.353 | MTT [2, 3]: −0.342
